Assays:
[1] = log P by HPLC (EEC directive 79/831 Annex V.A8); type: physicochemical; settings: HPLC, reversed-phase column (C18), 43° C., acidic range pH 2.7
Method: a) The determination of the M^+ by LC-MS in the acidic range is effected at pH 2.7, acetonitrile (contains 0.1% formic acid) and water as eluents; linear gradient from 10% acetonitrile to 95% acetonitrile, instrument: Agilent 1100 LC system, Agilent MSD system, HTS PAL. The log P values reported in the tables and Preparation Examples above were determined in accordance with EEC directive 79/831 Annex V.A8 by HPLC (High Performance Liquid Chromatography) using a reversed-phase column (C18). Temperature 43° C. The calibration is effected with unbranched alkan-2-ones (having 3 to 16 carbon atoms), for which the logP values are known.

[2] = system: larvae of the mustard beetle (Phaedon cochleariae); experiment: Phaedon cochleariae spray test (PHAECO); type: in vivo; settings: 100 g/ha, after 7 days
Method: Phaedon cochleariae—Spray Test (PHAECO)
(§1) Solvent: 78.0 parts by weight of acetone • • 1.5 parts by weight of dimethylformamide
(§2) Emulsifier: alkylaryl polyglycol ether
(§3) To produce a suitable active compound formulation, 1 part by weight of active compound is dissolved using the specified parts by weight of solvent and made up with water containing an emulsifier concentration of 1000 ppm until the desired concentration is attained. To produce further test concentrations, the preparation is diluted with emulsifier-containing water.
After 7 days, the efficacy in % is determined. 100% means that all the beetle larvae have been killed; 0% means that no beetle larvae have been killed.

[3] = system: greenhouse red spider mite (Tetranychus urticae); experiment: Tetranychus urticae spray test, OP-resistant (TETRUR); type: in vivo; settings: for efficacy: 100 g/ha, spray, after 6 days
Method: Tetranychus urticae—Spray Test, OP-Resistant (TETRUR)
as §1, §2, §3
Discs of bean leaves (Phaseolus vulgaris) infested by all stages of the greenhouse red spider mite (Tetranychus urticae) are sprayed with an active compound formulation of the desired concentration.
After 6 days, the efficacy in % is determined 100% means that all the spider mites have been killed; 0% means that none of the spider mites have been killed.
Tetranychus urticae—Spray Test; OP-Resistant (TETRUR)
After the desired period of time, the efficacy in % is determined 100% means that all the spider mites have been killed; 0% means that none of the spider mites have been killed.

[4] = system: adult cat fleas (Ctenocephalides felis); experiment: Ctenocephalides felis oral test (CTECFE); type: in vivo; settings: 100 ppm, oral in cattle blood, after 2 days
Method: Ctenocephalides felis-Oral Test ([…]) Solvent: dimethyl sulphoxide To produce a suitable active compound formulation, 10 mg of active compound are mixed with 0.5 ml of dimethyl sulphoxide. Dilution with citrated cattle blood gives the desired concentration. About 20 unfed adult cat fleas (Ctenocephalides felis) are placed into a chamber which is closed at the top and bottom with gauze. A metal cylinder whose bottom end is closed with parafilm is placed onto the chamber. The cylinder contains the blood/active compound preparation, which can be imbibed by the fleas through the parafilm membrane. After 2 days, the kill in % is determined 100% means that all of the fleas have been killed; 0% means that none of the fleas have been killed.

[5] = system: engorged adult female cattle ticks (Boophilus microplus); experiment: Boophilus microplus injection test (BOOPMI inj); type: in vivo; settings: assessed after 7 days
Method: Boophilus microplus Injection Test (BOOPMI inj) Solvent: dimethyl sulphoxide To produce a suitable active compound formulation, 10 mg of active compound are mixed with 0.5 ml of solvent and the concentrate is diluted with solvent to the desired concentration. 1 μl of the active compound solution is injected into the abdomen of 5 engorged adult female cattle ticks (Boophilus microplus). The animals are transferred into dishes and kept in a climate-controlled room. The efficacy is assessed after 7 days by laying of fertile eggs. Eggs which are not visibly fertile are stored in a climate-controlled cabinet until the larvae hatch after about 42 days. An efficacy of 100% means that none of the ticks has laid any fertile eggs; 0% means that all the eggs are fertile.

[6] = system: L1 larvae of the Australian sheep blowfly (Lucilia cuprina); experiment: Lucilia cuprina test (LUCICU); type: in vivo; settings: 100 ppm, after 2 days
Method: Lucilia cuprina Test (LUCICU) Solvent: dimethyl sulphoxide To produce a suitable active compound formulation, 10 mg of active compound are mixed with 0.5 ml of dimethyl sulphoxide, and the concentrate is diluted with water to the desired concentration. About 20 L1 larvae of the Australian sheep blowfly (Lucilia cuprina) are transferred into a test vessel containing minced horsemeat and the active compound preparation of the desired concentration. After 2 days, the kill in % is determined 100% means that all the larvae have been killed; 0% means that none of the larvae have been killed.

[7] = system: green peach aphid (Myzus persicae); experiment: Myzus persicae spray test; type: in vivo; settings: 100 g/ha, after 6 days
Method: Myzus persicae—Spray Test Solvent: 78 parts by weight of acetone • • 1.5 parts by weight of dimethylformamide Emulsifier: alkylaryl polyglycol ether To produce a suitable appropriate active compound formulation, 1 part by weight of active compound is dissolved using the specified parts by weight of solvent and made up with water containing an emulsifier concentration of 1000 ppm until the desired concentration is attained. To produce further test concentrations, the preparation is diluted with emulsifier-containing water. Discs of Chinese cabbage leaves (Brassica pekinensis) infested by all stages of the green peach aphid (Myzus persicae) are sprayed with an active compound formulation of the desired concentration. After 6 days, the efficacy in % is determined. 100% means that all the aphids have been killed; 0% means that none of the aphids have been killed.

[8] = system: caterpillars of the armyworm (Spodoptera frugiperda); experiment: Spodoptera frugiperda spray test (SPODFR); type: in vivo; settings: for efficacy: 100 g/ha, spray, after 7 days
Method: Spodoptera frugiperda—Spray Test (SPODFR) Solvent: 78.0 parts by weight of acetone • • 1.5 parts by weight of dimethylformamide Emulsifier: alkylaryl polyglycol ether To produce a suitable active compound formulation, 1 part by weight of active compound is dissolved using the specified parts by weight of solvent and made up with water containing an emulsifier concentration of 1000 ppm until the desired concentration is attained. To produce further test concentrations, the preparation is diluted with emulsifier-containing water. Leaf discs of maize (Zea mays) are sprayed with an active compound formulation of the desired concentration and, after drying, populated with caterpillars of the armyworm (Spodoptera frugiperda). After 7 days, the efficacy in % is determined 100% means that all the caterpillars have been killed; 0% means that no caterpillars have been killed. Spodoptera frugiperda—Spray Test (SPODFR) Solvent: 78.0 parts by weight of acetone • • 1.5 parts by weight of dimethylformamide Emulsifier: alkylaryl polyglycol ether To produce a suitable active compound formulation, 1 part by weight of active compound is dissolved using the specified parts by weight of solvent and made up with water containing an emulsifier concentration of 1000 ppm until the desired concentration is attained. To produce further test concentrations, the preparation is diluted with emulsifier-containing water. Leaf discs of maize (Zea mays) are sprayed with an active compound formulation of the desired concentration and, after drying, populated with caterpillars of the armyworm (Spodoptera frugiperda). After the desired period of time, the efficacy in % is determined. 100% means that all the caterpillars have been killed; 0% means that no caterpillars have been killed.

[9] = system: adult houseflies (Musca domestica); experiment: Musca domestica test (MUSCDO); type: in vivo; settings: 100 ppm, after 2 days
Method: Musca domestica Test (MUSCDO) Solvent: dimethyl sulphoxide To produce a suitable active compound formulation, 10 mg of active compound are mixed with 0.5 ml of dimethyl sulphoxide, and the concentrate is diluted with water to the desired concentration. Vessels containing a sponge treated with sugar solution and the active compound preparation of the desired concentration are populated with 10 adult houseflies (Musca domestica). After 2 days, the kill in % is determined. 100% means that all of the flies have been killed; 0% means that none of the flies have been killed.

[10] = system: mixed thrips population (Frankliniella occidentalis); experiment: Frankliniella occidentalis spray test (FRANOC); type: in vivo; settings: 7 dat
Method: Frankliniella occidentalis—Spray Test (FRANOC) Solvent: 7 parts by weight of dimethylformamide Emulsifier: alkylaryl polyglycol ether To produce a suitable active compound formulation, 1 part by weight of active compound is dissolved using the specified parts by weight of solvent and made up with water containing an emulsifier concentration of 1000 ppm until the desired concentration is attained. To produce further test concentrations, the preparation is diluted with emulsifier-containing water. If the addition of ammonium salts or/and penetrants is required, these are each added in a concentration of 1000 ppm to the formulation solution. Bush bean plants (Phaseolus vulgaris) are sprayed with an active compound preparation of the desired concentration. After drying, the treated plants are infected with a mixed thrips population (Frankliniella occidentalis). After the desired period of time, the plant-protective efficacy in % is determined. 100% means that no damage is evident; 0% means that the damage to the treated plant corresponds to that of the untreated control.

[11] = system: L2 larvae of the banded cucumber beetle (Diabrotica balteata); experiment: Diabrotica balteata drench test (DIABBA); type: in vivo; settings: 8 dat
Method: Diabrotica balteata—Drench Test (DIABBA) Solvent: 7 parts by weight of dimethylformamide Emulsifier: 2 parts by weight of alkylaryl polyglycol ether To produce a suitable active compound formulation, 1 part by weight of active compound is mixed with the specified amounts of solvent and emulsifier, and the concentrate is diluted with water to the desired concentration, it being necessary to include the volume of soil which is drenched in the calculation. It should be ensured that a concentration of 40 ppm of emulsifier in the soil is not exceeded. To produce further test concentrations, water is used for dilution. […] After one day, 25 L2 larvae of the banded cucumber beetle (Diabrotica balteata) are added. After 8 days, the efficacy in % is determined 100% means that all 5 plants have germinated and grown; 0% means that none of the plants has emerged.

| Compound | log P [1] | efficacy [2] [%] | efficacy [3] [%] | efficacy (kill in %) [4] [%] | efficacy (laying of fertile eggs) [5] [%] | efficacy (kill in %) [6] [%] | efficacy [7] [%] | efficacy [8] [%] | efficacy (kill in %) [9] [%] | also measured |
| --- | --- | --- | --- | --- | --- | --- | --- | --- | --- | --- |
| Cn1c(C(=O)NC(c2cc(Cl)c(Cl)c(Cl)c2)C(F)(F)F)cc2cc(C(=O)NC3(C(N)=S)CC3)c(Cl)cc21 (stereo not drawn) [I-20] | 4.07 | 100 | 100 | 100 | 100 | 100 | 90 | 100 | 100 | % efficacy ([8]; SPODFR, 0.8 g/ha, 7 dat): 100%; % efficacy ([8]; SPODFR, 4 g/ha, 7 dat): 100% |
| CCn1c(C(=O)NC(c2cccc(C(F)(F)F)c2)C(F)(F)F)cc2cc(C(=O)NC3(C(N)=S)CC3)c(Cl)cc21 (stereo not drawn) [reference compound] | – | – | – | – | – | – | – | – | – | Emax at 4 g/ha ([3]; Tetranychus urticae, 144 h, TETRUR, 4 g/ha, 6 dat, read-out: % efficacy): 70%; Emax at 20 g/ha ([3]; Tetranychus urticae, 144 h, TETRUR, 20 g/ha, 6 dat, read-out: % efficacy): 100%; Emax at 0.8 ppm ([10]; Thrips, 168 h, 0.8 ppm, read-out: % efficacy (plant-protective)): 60%; Emax at 4 ppm ([10]; Thrips, 168 h, 4 ppm, read-out: % efficacy (plant-protective)): 98%; Emax at 4 ppm ([11]; Diabrotica balteata, soil, 192 h, 4 ppm, read-out: % efficacy): 70%; Emax at 20 ppm ([11]; Diabrotica balteata, soil, 192 h, 20 ppm, read-out: % efficacy): 60%; Emax at 0.8 g/ha ([8]; Spodoptera frugiperda, 168 h, SPODFR, 0.8 g/ha, 7 dat, read-out: % efficacy): 33%; % efficacy (mortality) at a single application rate at 4 g/ha ([8]; Spodoptera frugiperda, 168 h, SPODFR, 4 g/ha, 7 dat): 100% |
| Cn1c(C(=O)NC(c2ccc(Cl)c(C(F)(F)F)c2)C(F)(F)F)cc2cc(C(=O)NC3(C(N)=S)CC3)c(Cl)cc21 (stereo not drawn) [I-16] | 3.70 | 100 | 100 | 100 | 100 | 100 | – | 100 | 100 | % efficacy (plant-protective) ([10]; 0.8 ppm): 90%; % efficacy (plant-protective) ([10]; 4 ppm): 90%; % efficacy ([11]; 4 ppm): 50%; % efficacy ([11]; 20 ppm): 100% |
| CCn1c(C(=O)NC(c2cc(Cl)c(Cl)c(F)c2F)C(F)(F)F)cc2cc(C(=O)NC3(C(N)=S)CC3)c(Cl)cc21 (stereo not drawn) [I-29] | 4.27 | 100 | 90 | 100 | 100 | 100 | 100 | 100 | 100 | – |
| CCn1c(C(=O)NC(c2ccc(F)c(C(F)(F)F)c2)C(F)F)cc2cc(C(=O)NC3(C(N)=S)CC3)c(Cl)cc21 (stereo not drawn) [I-32] | 3.41 | 100 | 100 | 100 | 100 | 100 | 90 | 100 | – | – |
